# According to US10421784B2, “Cell penetrating peptides for intracellular delivery of molecules” (AADIGEN, LLC, priority 2012, dated 2019):
# Like-named read-outs stand apart in the source and are kept apart here. Where a SMILES comes first, the peptide text is derived from it.
# Columns and labels:
# [1] = tested on: non-transformed HS68 fibroblasts; assay: Cell proliferation after VEPEP-9 mediated delivery; assay type: cell-based, Human
# Experimental: (§1) Adherent HS68 fibroblasts, HeLa, PC3, MCF-7, SCK3-Her2, PBMC cell lines (from American Type Culture Collection (ATCC)) were cultured in Dulbecco's Modified Eagle's Medium supplemented with 2 mM glutamine, 1% antibiotics (streptomycin 10,000 μg/ml, penicillin, 10,000 IU/ml) and 10% (w/v) foetal calf serum (FCS), at 37° C. in a humidified atmosphere containing 5% CO2. Stock solutions of VEPEP-9/peptide particles were prepared by complexing 1 μM peptide with VEPEP-9 peptides at a molar ratio of 1/20 for 30 min at 37° C. Lower concentrations of VEPEP-9-carrier/peptide (from 500 nM to 1 μM) were obtained by serial dilution of the stock complexes in PBS, in order to preserve the same VEPEP-9-carrier/peptide ratio. Stock solutions of VEPEP-9/siRNA particles were prepared by complexing 100 nM siRNA with VEPEP-9 peptides at a molar ratio of 1/20 for 30 min at 37° C. Lower concentrations of VEPEP-9/siRNA (from 20 nM to 0.125 nM) were obtained by serial dilution of the stock complexes in PBS, in order to preserve the same VEPEP-9/siRNA ratio. […] For cdk2 derived peptides, cell proliferation was monitored after 24 and 48 hrs. For siRNA targeting Cyclin B1, Cyclin B1 mRNA level was determined 24 hrs following transduction, using Quantigen (Pommies Inc.). […]
# [2] = tested on: Hela, MCF7, HEK-2 and U2OS cells; assay: Cell proliferation after VEPEP-9 mediated delivery; assay type: cell-based
# Experimental: as §1
# cultured cells = assay: Cell cycle progression / cyclin B1 levels in cultured cells; assay type: cell-based; settings: for concentration at which 4 N accumulation was optimally obtained: VEPEP-9 mediated delivery
# HEK-2 = assay: G2 arrest (accumulation of cells with 4 N content); assay type: cell-based; settings: Cyclin B1 siRNA delivered with VEPEP-9
# [3] = tested on: PC3, A549, or SCK-3-HEK2-xenografted mice; assay: Tumour growth and cyclin B1 mRNA, siRNA controls; assay type: in vivo
# Experimental: (§2) For siRNA treatment: Two to three weeks after tumour implant, when tumour size reached about 100 mm^3, animals were treated by intratumoral or intravenous injection, every 3 days, with a solution of 0.1 ml of either free Cyc-B1 siRNA (50 or 100 μg), control siRNA Cyc-B3 or Cyc-B1 siRNA (1, 5, 10 μg) complexed with NANOPEP-9 at a 1/20 molar ratio.
# Athymic female nude mice (6-8 weeks of age) were subcutaneously inoculated into the flank with 1×10^6 PC3 (prostate cancer), A549 (lung cancer) or SCK-3-HEK2 (ovarian cancer) cells in 100 μl PBS. Two to three weeks after tumour implant, when tumour size reached about 100 mm^3, animals were treated by intratumoral or intravenous injection, every 3 days, with a solution of 0.1 ml of either free Cyc-B1 siRNA (50 or 100 μg), control siRNA Cyc-B3 or Cyc-B1 siRNA (5, 10 μg) complexed with NANOPEP-9b or NANOPEP-9e particles. The “core” shell of the particles was formed using VEVEP-9b or VEPEP-9e peptide at a molar ratio of 20/1 with a siRNA targeting cycline B1. siRNA stock solutions are in 50 mM Tris, 0.5 mM EDTA buffer or in RNase free water. VEPEP-9 peptides were solubilised in water and stock solution of peptide was sonicated for 10 min in a water bath before complex formation. Then VEPEP-9/siRNA complexes were formed by adding siRNA into the peptide solution and incubating at 37° C. for 20-30 minutes to allow the carrier peptide/siRNA complexes to form. NANOPEP-9 particles contain a VEPEP-9/siRNA “core shell” surrounded by additional VEPEP-9 at a 1/20 molar ratio.
# The potential of NANOPEP-9b or NANOPEP-9e to deliver cyclin B1 siRNA in vivo was evaluated on PC3, A549, or SCK-3-HEK2-xenografted mice (FIGS. 13A-13B). The effect of local intratumoral administration of NANOPEP-9/siRNA particles (molar ratio 20/1) on the growth of established subcutaneous tumours was evaluated. At day 50, tumor sizes in the control cohort, injected with PBS increased by about 3 to 5 fold. […] At day 48, it was validated that the Cyc-B1 siRNA mediated inhibition of tumour growth was directly associated with a decrease in the level of cyclin B1 mRNA.
# PC3 tumor = assay: Tumour size, intravenous Cyc B1 siRNA in NANOPEP-9; assay type: in vivo, mice; settings: intravenous every three days, day 50
# Experimental: as §2
# Athymic female nude mice (6-8 weeks of age) were subcutaneously inoculated into the flank with 1×10^6 PC3 (prostate cancer), A549 (lung cancer) or SCK-3-HEK2 (ovarian cancer) cells in 100 μl PBS. Two to three weeks after tumour implant, when tumour size reached about 100 mm^3, animals were treated by intratumoral or intravenous injection, every 3 days, with a solution of 0.1 ml of either free Cyc-B1 siRNA (50 or 100 μg), control siRNA Cyc-B3 or Cyc-B1 siRNA (5, 10 μg) complexed with NANOPEP-9b or NANOPEP-9e particles. The “core” shell of the particles was formed using VEVEP-9b or VEPEP-9e peptide at a molar ratio of 20/1 with a siRNA targeting cycline B1. siRNA stock solutions are in 50 mM Tris, 0.5 mM EDTA buffer or in RNase free water. VEPEP-9 peptides were solubilised in water and stock solution of peptide was sonicated for 10 min in a water bath before complex formation. […]
# HT29 tumor = assay: Tumour size, intravenous Cyc B1 siRNA in NANOPEP-9; assay type: in vivo, mice; settings: intravenous every three days, day 50
# Experimental: NANOPEP-9b and NANOPEP-9e particles were used for systemic intravenous administration. Five micrograms (0.25 mg/kg) and 10 μg (0.5 mg/kg) of Cyc B1 siRNA in NANOPEP-9b and NANOPEP-9e particles were injected intravenously every three days into mice bearing xenografted tumors.
# Hela [4] = settings: read-out: IC50, block of proliferation, siRNA delivered with VEPEP-9b and VEPEP-9e
# Experimental: (§6) Adherent HS68 fibroblasts, HeLa, PC3, MCF-7, SCK3-Her2, PBMC cell lines (from American Type Culture Collection (ATCC)) were cultured in Dulbecco's Modified Eagle's Medium supplemented with 2 mM glutamine, 1% antibiotics (streptomycin 10,000 μg/ml, penicillin, 10,000 IU/ml) and 10% (w/v) foetal calf serum (FCS), at 37° C. in a humidified atmosphere containing 5% CO2. […] Stock solutions of VEPEP-9/siRNA particles were prepared by complexing 100 nM siRNA with VEPEP-9 peptides at a molar ratio of 1/20 for 30 min at 37° C. Lower concentrations of VEPEP-9/siRNA (from 20 nM to 0.125 nM) were obtained by serial dilution of the stock complexes in PBS, in order to preserve the same VEPEP-9/siRNA ratio. 150,000 cells seeded in a 35 mm dish the day prior transfection, were grown to 60% confluence and overlaid with 200 μl of preformed complexes, incubated for 3-5 min, then 400 μl of DMEM were added. After 30 min. incubation at 37° C., 1 ml of fresh DMEM containing 16% foetal calf serum (FCS) was added in order to reach a final FCS concentration of 10%, without removing the overlay of VEPEP-9/cargo complexes. Cells were returned to the incubator for 24 hrs. For cdk2 derived peptides, cell proliferation was monitored after 24 and 48 hrs. For siRNA targeting Cyclin B1, Cyclin B1 mRNA level was determined 24 hrs following transduction, using Quantigen (Pommies Inc.). […]
# MCF7 [5] = settings: read-out: IC50, block of proliferation, siRNA delivered with VEPEP-9b and VEPEP-9e
# Experimental: as §6
# Hela [6] = settings: read-out: IC50, accumulation of cells with a 4 N content (G2 arrest), Cyclin B1 siRNA delivered with VEPEP-9
# MCF7 [7] = settings: read-out: IC50, accumulation of cells with a 4 N content (G2 arrest), Cyclin B1 siRNA delivered with VEPEP-9
# [8] = Fluorescence titration, VEPEP-9/cargo binding; settings: cargo SHM
# Experimental: (§3) Fluorescence experiments were performed on a PTI spectrofluorimeter at 25° C. in a NaCl 154 mM buffer. Intrinsic Trp-fluorescence of VEPEP-9 was excited at 290 nm and emission spectrum was recorded between 310 and 400 nm, with a spectral band-pass of 2 and 8 nm for excitation and emission, respectively. FITC- or CY5-fluorescence of labelled-peptide or Oligonucleotide were excited at 492 nm and emission recorded between 500 and 580 nm. For VEPEP-9/peptide interaction, 0.5 μM of FITC-labelled peptide was titrated by increasing concentrations of VEPEP-9. For VEPEP-9/oligonucleotide interaction, 200 nM of FITC or CY5-labelled oligodeoxynucleotide (ODN) was titrated by increasing concentrations of VEPEP-9. All measurements were corrected for the dilution and curve fitting were performed by using Grafit software (Erithacus).
# (§4) VEPEP-9 peptide form stable complexes with peptides and ODN. The binding of cargos to VEPEP-9 was monitored by fluorescence spectroscopy using the both intrinsic Trp group of VEPEP-9 (3 to 5 Trp-residues) and extrinsic fluorescently labelled cargoes (using Cy3, Cy5 or FITC). Curve fitting reveal that VEPEP-9 strongly binds the different cargoes with dissociation constant in the nanomolar range (Tables 1 and 2 and FIG. 2).
# (§5) VEPEP-9 peptides form stable particles with different cargoes including peptide, siRNA, PNA and small aromatic (FIG. 2). The dissociation constant for peptide, siRNA, PNA and small hydrophobic molecule ranges between 10-100 nM, 5-50 nM, 5-50 nM and 0.02 to 0.2 μM, respectively, depending on the nature of the dyes and of the cargoes.
# PNA (15 mer -PNA) = assay: Fluorescence titration, VEPEP-9/cargo binding; settings: cargo PNA (15 mer)
# Experimental: as §3, §4, §5
# Peptide (C4) = assay: Fluorescence titration, VEPEP-9/cargo binding; settings: cargo peptide (C4)
# Experimental: as §3, §4, §5
# siRNA = assay: Fluorescence titration, VEPEP-9/cargo binding; settings: cargo siRNA
# Experimental: as §3, §4, §5
# [9] = Fluorescence titration, VEPEP-9/SHM binding
# Experimental: as §3
# Binding of small molecule cargoes has been investigated in detailed depending on the nature of the SHM. Several hydrophobic molecules have been used (Daunomycin, Paclitaxel, doxorubicin, porphyrin), as well as charged molecules (nucleotide, nucleoside and fluorescent dyes).
# SKB3 = assay: Inhibition of cancer cell proliferation by delivered drugs; assay type: cell-based
# MCF7 [10] = assay: as above; assay type: cell-based; settings: Homo sapiens
# [11] = drug complexed with VEPEP-9a at molar ratio 1/20, read-out: VEPEP-9a IC50
# [12] = drug complexed with VEPEP-9b at molar ratio 1/20, read-out: VEPEP-9b IC50
# [13] = drug complexed with VEPEP-9f at molar ratio 1/20, read-out: VEPEP-9f IC50
# [14] = drug complexed with VEPEP-9d at molar ratio 1/20, read-out: VEPEP-9d IC50
# [15] = free drug, read-out: Free drug IC50
Molecule,Binding [8],Kd [8],Binding (PNA (15 mer -PNA)),Kd (PNA (15 mer -PNA)),Binding (Peptide (C4)),Binding (siRNA),Kd (siRNA),Binding ([9]; cargo AZT),Kd ([9]; cargo AZT),Binding ([9]; cargo Doxorubicin),Kd ([9]; cargo Doxorubicin),Binding ([9]; cargo FAM-guanosine),Kd ([9]; cargo FAM-guanosine),Binding ([9]; cargo porphyrin),Kd ([9]; cargo porphyrin),reduction of proliferation [1],concentration sufficient to block proliferation [2],concentration at which 4 N accumulation was optimally obtained (cultured cells),also measured
"CSCC[C@H](NC(=O)[C@H](CCCNC(=N)N)NC(=O)[C@@H](NC(=O)[C@H](CCC(N)=O)NC(=O)[C@H](CCCCN)NC(=O)[C@@H](N)CCCCN)C(C)C)C(=O)N[C@@H](C)C(=O)N[C@@H](Cc1c[nH]cn1)C(=O)N[C@@H](CC(C)C)C(=O)N[C@H](C(=O)N[C@@H](CC(C)C)C(=O)N[C@H](C(=O)O)[C@@H](C)O)C(C)C [C4, KKQVRMAHLVLT] (H-KKQVRMAHLVLT-OH; N-terminus and C-terminus assumed)",–,–,–,–,–,–,–,–,–,–,–,–,–,–,–,10%,200 nM,200 nM,–
"siRNA: siRNA targeting Cyclin B1; sense 5′GGCGAAGAUCAACAUGGCATT3′, antisense 5′UGCCAUGUUGAUCUUCGCCTT3′ (chemistry not given here)",–,–,–,–,–,–,–,–,–,–,–,–,–,–,–,10%,20 nM,20 nM,IC50 (HEK-2): 1.2 ± 0.6 nM; effect on tumour growth ([3]; 100 μg naked siRNA (intratumoral or intravenous) or carrier alone): no significant effect; level of cyclin B1 mRNA in tumour ([3]; day 48): decrease; inhibition (reduction in tumor size) (PC3 tumor; 5 μg siRNA in NANOPEP-9b and NANOPEP-9e particles): 65%; inhibition (reduction in tumor size) (PC3 tumor; 10 μg siRNA in NANOPEP-9b and NANOPEP-9e particles): 90%; inhibition (reduction in tumor size) (HT29 tumor; 5 μg siRNA): 35%; inhibition (reduction in tumor size) (HT29 tumor; 10 μg siRNA): 70%; IC50 (Hela [4]): 3.1 ± 0.2 nM; IC50 (MCF7 [5]): 1.6 ± 0.5 nM; IC50 (Hela [6]): 2.4 ± 0.8 nM; IC50 (MCF7 [7]): 1.9 ± 0.9 nM
Cyc-B3: mismatch cyclin B1 siRNA harbouring two mutations; sense 5′GGUGAAGAUCAGCAUGGCATT3′ (antisense UGCCAUGUCGAUCUUCACCTT; chemistry not given here),–,–,–,–,–,–,–,–,–,–,–,–,–,–,–,–,–,–,"effect on cyclin B1 levels and cell cycle progression (cultured cells; 200 nM, complexed with VEPEP-9 at a 20/1 ratio): no effect; inhibition of tumour growth ([3]; complexed with NANOPEP-9e, 0.5 mg/kg): unable to inhibit tumour growth"
"CC(=O)O[C@H]1C(=O)[C@@]2(C)[C@H]([C@H](OC(=O)c3ccccc3)[C@]3(O)C[C@H](OC(=O)[C@H](O)[C@@H](NC(=O)c4ccccc4)c4ccccc4)C(C)=C1C3(C)C)[C@]1(OC(C)=O)CO[C@@H]1C[C@@H]2O [Taxol, taxol]",–,–,–,–,–,–,–,–,–,–,–,–,–,–,–,–,–,–,IC50 (SKB3; [11]): 700 nM; IC50 (SKB3; [12]): 650 nM; IC50 (SKB3; [13]): 900 nM; IC50 (SKB3; [14]): 700 nM; IC50 (SKB3; [15]): 10000 nM; IC50 (MCF7 [10]; [11]): 800 nM; IC50 (MCF7 [10]; [12]): 120 nM; IC50 (MCF7 [10]; [13]): 800 nM; IC50 (MCF7 [10]; [14]): 500 nM; IC50 (MCF7 [10]; [15]): 7000 nM

# More lines, main results first:
Binding [8],Kd [8],Binding (PNA (15 mer -PNA)),Kd (PNA (15 mer -PNA)),Binding (Peptide (C4)),Binding (siRNA),Kd (siRNA),Binding ([9]; cargo AZT),Kd ([9]; cargo AZT),Binding ([9]; cargo Doxorubicin),Kd ([9]; cargo Doxorubicin),Binding ([9]; cargo FAM-guanosine),Kd ([9]; cargo FAM-guanosine),Binding ([9]; cargo porphyrin),Kd ([9]; cargo porphyrin),Molecule,reduction of proliferation [1],concentration sufficient to block proliferation [2],concentration at which 4 N accumulation was optimally obtained (cultured cells),also measured
Yes,20 to 100 nM,Yes,> 50 nM,yes,yes,> 200 nM,yes,20 nM,yes,90 nM,yes,400 nM,yes,250 nM,"X1WWRWWASWARSWWR [VEPEP-9d, X1 is beta-A or S]",–,–,–,–
Yes,20 to 100 nM,Yes,5 to 50 nM,yes,yes,5 to 50 nM,yes,90 nM,yes,50 nM,yes,1100 nM,yes,200 nM,"X1WWGSWATPRRRWWR [VEPEP-9e, X1 is beta-A or S]",–,–,–,effect on cyclin B1 levels and cell cycle progression (cultured cells; carrier alone (100 μM)): no effect
